Measurements: US10416153B2, “Chemical fluorescent probes for detecting biofilms” (priority 2015, dated 2019)

Key:
[1] = target: purified amyloid (Pseudomonas aeruginosa, UniProt Q9I2F0); assay: Surface plasma resonance assay with purified amyloid immobilized on chips; type: binding
Description: In a biofilm screening, two different types of biofilms (biofilm versus amyloid deficient biofilm) were treated with compounds and hits were identified by selective staining of biofilms containing amyloid structures. Thus, the binding affinity of four compounds with the purified amyloid subunit (fibril) protein was validated by surface plasma resonance assay. The subunit protein was immobilized on chips and each of compounds was flowed continuously. Thioflavin T, BDN1 B2 and BDNAC3 E6 were tested with hit compounds. […] (A) TEM images of purified amyloid proteins. Scale bar=400 nm. (B) Surface plasma resonance assay of four amyloid targeting compounds with purified amyloid.
Amyloids were prepared in HEPES buffer (0.01 M HEPES, pH 7.4, 0.15 M NaCl, 3 mM EDTA and 0.005% P20). Amyloid fibers were fragmented with sonication at 80 Hz for 10 s and centrifuged at 14 000 g for 30 s to remove any large fibers. Concentrate (40 μL) was mixed with 10 mM sodium acetate (120 μL), pH 5.5 right before immobilization.
SPR experiments were performed at 25° C. using Biacore T-200 biosensor with research grade CM5-S sensor chips (Biacore, GE Healthcare). Carboxymethylated CM5-S chips were activated using 70 μL of 0.2 M 1-ethyl-3-[3-(dimethylamino)propyl] carbodiimide hydrochloride (EDC) and 0.05 M N-hydroxysuccinimide (NHS) in a 1:1 ratio. Amyloid in sodium acetate solution (100 μL) was injected over the activated surface until an immobilization level of 7700 response units (RU) was reached. Ethanolamine hydrochloride (1.0 M), pH 8.5 was injected across the surface for 5 min to block any residual activated-unreacted carboxyl groups. Compounds were dissolved into HEPES buffer containing final concentration of 5% DMSO and serially diluted to 340 nM, 1.03, 3.09, 9.26, 27.78, 83.33 μM. Tht+ was prepared similarly as positive control. Replicates of the diluted compounds were injected across a unmodified flow cell and amyloid-immobilized flow cell in a serial manner for association phase of 60 s followed by dissociation phase of 5 min. […] The chip surface was rinsed using HEPES buffer. All sensorgrams were double-referenced with responses from unmodified channel and blank HEPES buffer injections. Equilibrium responses from the compounds were plotted against logarithmic of their corresponding concentrations where the binding affinities were calculated from 50% saturation.
First batch of screening was done under varying amyloid expression conditions for specifically isolating amyloid targeting compounds and four compounds were isolated from cell based screening. […] Finally, four compounds were examined by surface plasma resonance assay whether those have binding specificity with putative target, namely amyloid. Four hit compounds were examined with thioflavin T and two negative controls on chips after immobilizing purified amyloid.

[2] = system: P. aeruginosa (PAO1-GFP); assay: Eye infection model, imaging of infected cornea under TRITC channel; type: in vivo; conditions: mouse cornea infected with PAO1-GFP for 2 days, 10 minutes incubation with compound
Description: (A) Propagation of Pseudomonas aeruginosa (PAO1-GFP) after infecting into mouse eyes. GFP signals were detected after 12 hours later after infecting bacteria and signals were fully saturated after 24 hours later; Scale bar=2 mm. (B) Tests of amyloid targeting compounds in eye infection models. The model was generated by inoculation of a GFP tagged P. aeruginosa PAO1 strain into the eye after making scratches in cornea. Images were taken in bright field and TRITC from ketamine/xylazine anesthetized mice and compounds signals were examined under TRITC channel after incubation with compounds for 10 minutes at room temperature. Scale bar=2 mm.
P. aeruginosa (PAO1-GFP) was grown at 37° C. in ABTGC media for 16 h. 500 μL of cultured PAO1-GFP was transferred to 1.5 mL Eppendorf tube and centrifuged at 14 000 g for 3 min. Supernatant was removed and pellet was washed with PBS buffer 3 times. Finally, pellet was resuspended in 250 μL of PBS buffer.
Mice were anesthetized ketamine/xylazine by peritoneal injection before scratches were made in cornea with blade. PAO1-GFP (1 μL, 2×107˜10^8 CFU) dissolved in PBS buffer was treated in left eye and PBS buffer was treated in right eye. P. aeruginosa inoculated mice were incubated for 2 days before in vivo experiments. Animal handling was in accordance with the Institutional Aminal Care and Use Committee of Singapore Bioimaging Consortium (Agency of Science, Technology and Research, Singapore).
Biofilm is stained by amyloid targeting compounds through interacting with FAP proteins which is one of the components for intact biofilm. Thus, amyloid targeting compounds were tested in eye infection model which is one of the naturally reported symptoms of P. aeruginosa containing biofilms. Eye infection model was generated in black mouse. […] GFP signals were detected after 12 hours incubation with P. aeruginosa-GFP bacteria.
Fluorescence signals under TRITC channel were checked to confirm infection on cornea and amyloid compounds were tested under TRITC channel after incubation for 10 minutes. […]

[3] = system: P. aeruginosa biofilm (PAO1-GFP); assay: Mouse implant model, silicone tubes coated with PAO1-GFP biofilm; type: in vivo, BALB/c mice; conditions: 100 μM (200 μL) injected via the peritoneal cavity, 2 h before recovering implants; listed as CDy11
Description: (§1) CLSM images of a GFP tagged P. aeruginosa PAO1 strain colonizing silicone implants after removal from BALB/c mice at day 1 post insertion. Green fluorescent areas represent P. aeruginosa. Insertion of silicone tube into mice which was precoated with (A) PAO1Δfap-GFP and (B) PAO1-GFP biofilms. Images of the microcolonies adhering to the silicone implants with CDy11. Only PAO1-GFP biofilms coated silicone tube was stained by CDy11; Scale bars=10 μm.
(§2) One bacterial colony (PAO1-GFP) was picked up from the plate to inoculate an overnight culture in LB (Luria Broth) media in 37° C. incubator with 110 rpm/min for 20 h. Silicone tubes (Ole Dich) were cut with a thickness of 4 mm and were sterilized in 0.5% NaClO for overnight. Next day, 25 mL of overnight cultured media was transferred to 50 mL conical tube and pellet was collected by centrifuging at 3000 rpm for 10 min. Subsequently, pellet was suspended with 2 mL of LB media before optical density was observed under 600 nm wavelength.
(§3) Sterilized silicone was washed twice in 0.9% NaCl solution. Silicone tubes (8 pieces) in 50 mL flask were incubated with 10 mL of diluted bacteria (OD600=0.1) in 0.9% NaCl solution in rotationary shaker at 37° C. with 110 rpm/min for 20 h. […]
(§4) All silicone tubes were collected after 2 h incubation to observe CDy11 fluorescence of the inner surface of the silicone tube by means of laser confocal scanning microscopy. […]

[4] = system: PAO1Δfap-GFP strain biofilm; assay: Mouse implant model, silicone tubes coated with PAO1Δfap-GFP biofilm; type: in vivo, BALB/c mice; conditions: 100 μM (200 μL) injected via the peritoneal cavity, 2 h before recovering implants
Description: as §1, §2, §3, §4

[5] = system: Immune cells; assay: Mouse implant model, silicone tubes without P. aeruginosa precoating; type: in vivo, BALB/c mice; conditions: same amount injected via the peritoneal cavity; data not shown
Description: After anesthesia of mice with ketamine/xylazine mix by intraperitoneal injection, the mouse was placed ventral side up on plate. Fur was clipped and the skin was swabbed with 70% ethanol. An incision of approximately 0.5-1 cm was made in the left groin area. Then an implant prepared the day before was inserted into peritoneal cavity via the incision. The incision was closed with a suture and healed on a warm pad at 26-28° C.
The inventors also applied a mouse implant model to test the capacity of CDy11 (BDNAC3 D8) to detect P. aeruginosa biofilms in a surgical format. Silicone tubes were precolonized by bacteria and subsequently inserted into the peritoneal cavity 1 day before the experiment. BALB/c mice were assigned to each of the two groups and 100 μM CDy11 (200 μL) was injected into the mice via the peritoneal cavity 2 h before recovering the implants. As a mock control, a similar volume of buffer was injected into the second set of mice. In addition, CDy11 was injected into a set of mice which had been installed with uncolonized silicone tubes in the peritoneal cavity.
All silicone tubes were collected after 2 h incubation to observe CDy11 fluorescence of the inner surface of the silicone tube by means of laser confocal scanning microscopy. […] The silicone tubes without P. aeruginosa precoating were also examined by injection of same amount of CDy11. […]

Chain of purified amyloid (Q9I2F0 25-340): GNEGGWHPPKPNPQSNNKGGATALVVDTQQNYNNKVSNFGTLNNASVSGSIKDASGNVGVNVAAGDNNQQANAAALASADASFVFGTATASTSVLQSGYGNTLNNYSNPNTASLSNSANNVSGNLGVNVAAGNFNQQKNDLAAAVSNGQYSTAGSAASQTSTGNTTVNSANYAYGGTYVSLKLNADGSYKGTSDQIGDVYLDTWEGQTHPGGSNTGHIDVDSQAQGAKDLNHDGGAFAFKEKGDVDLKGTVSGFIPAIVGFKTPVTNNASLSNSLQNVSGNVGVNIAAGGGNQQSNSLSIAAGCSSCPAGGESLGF

| SMILES | Kd [1] | visualization of infected eyes [2] | staining of PAO1-GFP biofilm coated silicone tube [3] | staining of PAO1Δfap-GFP biofilm coated silicone tube [4] | staining of immune cells in silicone tubes without P. aeruginosa precoating [5] |
| --- | --- | --- | --- | --- | --- |
| COc1cc(Cl)cc(/C=C/c2cc(C)c3n2[B-](F)(F)[N+]2=CC=CC2=C3c2ccc(N)cc2)c1OC [BDN2 H2] | 61 ± 3 µM | visualized | – | – | – |
| COc1cc(/C=C/c2cc(C)c3n2[B-](F)(F)[N+]2=CC=CC2=C3c2ccc(N)cc2)c(Br)c(Br)c1O [BDN3 F3] | 16 ± 1 µM | – | – | – | – |
| Cc1cc(/C=C/c2ccc(-c3ccc([N+](=O)[O-])cc3)o2)n2c1C(c1ccc(N)cc1)=C1C=CC=[N+]1[B-]2(F)F [BDN3 G7] | 28 ± 5 µM | visualized | – | – | – |
| COc1ccc(/C=C/c2cc(C)c3n2[B-](F)(F)[N+]2=CC=CC2=C3c2ccc(NC(C)=O)cc2)c(F)c1 [BDNAC3 D8] | 29 ± 2 µM | visualized | specifically stained | not stained | not stained |
| Cc1ccc2c(c1)sc(-c1ccc(N(C)C)cc1)[n+]2C [thioflavin T, reference compound] | 85 ± 7 µM | – | – | – | – |
